# Literature values, collected in patent US7531581B2, “Method and use of acidified modified polymers to bind biocides in paints” (I-Tech AB, priority 2005, dated 2009).
# Tested on: barnacles
# Settings: serotonin antagonists and dopamine agonists
row,Structure (SMILES),effect on attachment of barnacles
1,CC(C)C[C@H]1C(=O)N2CCC[C@H]2[C@]2(O)O[C@](NC(=O)[C@@H]3C=C4c5cccc6[nH]c(Br)c(c56)C[C@H]4N(C)C3)(C(C)C)C(=O)N12 [(+)-Bromocriptine],inhibitory properties
2,O=C(c1ccc(F)cc1)C1CCN(CCn2c(=O)[nH]c3ccccc3c2=O)CC1 [Ketanserin],inhibitory properties
3,CCCN1CCc2cccc3c2[C@H]1Cc1ccc(O)c(O)c1-3 [R (−)-NPA],inhibitory properties
